Like-named read-outs stand apart in the source and are kept apart here.
Assays:
[1] = tested on: OC43; experiment: OC43 Huh7 CPE assay (cytopathic experiment); assay type: cell-based, coronavirus OC43 (HCoV-OC43); settings: for EC50: read-out: OC43 Huh7 CPE assay (μM) EC50; for EC90: read-out: OC43 Huh7 CPE assay (μM) EC90
Method in brief: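 Cells seeded overnight, then two-fold diluted compound added with virus; viability read by CellTiter-Glo after 3 days (229E, MRC5 cells) or 7 days (OC43, Huh7 cells). EC50/EC90 from % inhibition of virus-induced CPE; CC50 from parallel uninfected cytotoxicity runs, by nonlinear fitting.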

[2] = tested on: 229E; experiment: 229E MRC5 CPE assay (cytopathic experiment); assay type: cell-based, coronavirus 229E (HCoV-229E)
[3] = Betacoronavirus 1, OC43, Huh-7, 168 h
[4] = Human coronavirus 229E, MRC5, 72 h, read-out: 229E MRC5 CPE assay (μM) EC50
[5] = Human coronavirus 229E, MRC5, 72 h, read-out: 229E MRC5 CPE assay (μM) EC90
[6] = Betacoronavirus 1, Huh-7, 168 h, Huh7 cells, OC43 virus, 7 days, Cell Titer Glo
[7] = Human coronavirus 229E, MRC5, 72 h; read-out: 229E MRC5 CPE assay (μM) EC50
[8] = Human coronavirus 229E, MRC5, 72 h; read-out: 229E MRC5 CPE assay (μM) EC90

| Structure (SMILES) | EC50 [1, 3] [µM] | EC90 [1, 3] [µM] | EC50 [2, 4] [µM] | EC90 [2, 5] [µM] | EC50 [1, 6] [µM] | EC90 [1, 6] [µM] | EC50 [2, 7] [µM] | EC90 [2, 8] [µM] |
| --- | --- | --- | --- | --- | --- | --- | --- | --- |
| N#C[C@@]1(c2ccc3c(N)ncnn23)O[C@@H]2CO[P@@](=O)(OCOC(=O)C3CCCC3)O[C@H]2[C@H]1O [Compound 262] | > 0.5 | > 0.5 | 0.1 to 0.5 | > 0.5 | – | – | – | – |
| CCC(CC)COC(=O)[C@H](C)N[P@](=O)(OC[C@H]1O[C@@](C#N)(c2ccc3c(N)ncnn23)[C@H](O)[C@@H]1O)Oc1ccc(C[C@H](NC(=O)OCc2ccccc2)C(=O)OC2CCCC2)cc1 [Compound 219] | – | – | – | – | > 0.5 | > 0.5 | > 0.5 | > 0.5 |
| N#C[C@@]1(c2ccc3c(N)ncnn23)O[C@@H]2CO[P@@](=O)(Oc3ccccc3)O[C@H]2[C@H]1O [Compound 220] | > 0.5 | > 0.5 | – | – | – | – | > 0.5 | > 0.5 |
| CCN(CC)Cc1cc(Nc2ccnc3cc(Cl)ccc23)ccc1O[P@](=O)(N[C@@H](C)C(=O)OC(C)C)OC[C@H]1O[C@@](C#N)(c2ccc3c(N)ncnn23)[C@H](O)[C@@H]1O [Compound 086] | – | – | – | – | > 0.5 | > 0.5 | > 0.5 | > 0.5 |
| N#C[C@@]1(c2ccc3c(N)ncnn23)O[C@@H]2COP(=O)(O)O[C@H]2[C@H]1O [Compound 094] | > 0.5 | > 0.5 | > 0.5 | > 0.5 | – | – | – | – |
| [2H]c1cc([C@]2(C#N)O[C@@H]3CO[P@@](=O)(OCC)O[C@H]3[C@H]2O)n2ncnc(N)c12 [Compound 233] | – | – | – | – | > 0.5 | > 0.5 | > 0.5 | > 0.5 |
| CCC(CC)COC(=O)[C@H](C)N[P@@](=O)(OCOC(=O)c1cccnc1)OC[C@H]1O[C@@](C#N)(c2ccc3c(N)ncnn23)[C@H](O)[C@@H]1O [Compound 174] | > 0.5 | > 0.5 | > 0.5 | > 0.5 | – | – | – | – |
| [2H]c1cc([C@]2(C#N)O[C@@H]3CO[P@](=O)(O)O[C@H]3[C@H]2OC(=O)C(CCC)CCC)n2ncnc(N)c12 [Compound 208] | 0.1 to 0.5 | 0.1 to 0.5 | > 0.5 | > 0.5 | – | – | – | – |
| CC(C)OC(=O)C(C)(C)NP(=O)(OCOC(=O)c1cccnc1)OC[C@H]1O[C@@](C#N)(c2ccc3c(N)ncnn23)[C@H](O)[C@@H]1O (some centres unmarked) [Compound 177] | > 0.5 | > 0.5 | > 0.5 | > 0.5 | – | – | – | – |
| CCCC(CCC)C(=O)OCO[P@@](=O)(N[C@@H](C)C(=O)OC(C)C)OC[C@H]1O[C@@](C#N)(c2ccc3c(N)ncnn23)[C@H](O)[C@@H]1O [Compound 075] | 0.1 to 0.5 | > 0.5 | 0.1 to 0.5 | 0.1 to 0.5 | – | – | – | – |
| CCCC(CCC)C(=O)OCOP(=O)(NC(C)(C)C(=O)OC(C)C)OC[C@H]1O[C@@](C#N)(c2ccc3c(N)ncnn23)[C@H](O)[C@@H]1O (some centres unmarked) [Compound 034] | 0.1 to 0.5 | > 0.5 | 0.1 to 0.5 | > 0.5 | – | – | – | – |
| CCCN(CCC)S(=O)(=O)c1ccc(C(=O)OCO[P@@](=O)(NC(C)(C)C(=O)OC(C)C)OC[C@H]2O[C@@](C#N)(c3ccc4c(N)ncnn34)[C@H](O)[C@@H]2O)cc1 [Compound 162] | > 0.5 | > 0.5 | > 0.5 | > 0.5 | – | – | – | – |
| N#C[C@@]1(c2ccc3c(N)ncnn23)O[C@H](COP(=O)(OCOC(=O)OC2CCC2)OCOC(=O)OC2CCC2)[C@@H](O)[C@H]1O [Compound 276] | 0.1 to 0.5 | > 0.5 | 0.1 to 0.5 | > 0.5 | – | – | – | – |
| [2H]c1cc([C@]2(C#N)O[C@@H]3CO[P@](=O)(OCOC(=O)C(CCC)CCC)O[C@H]3[C@H]2O)n2ncnc(N)c12 [Compound 210] | < 0.1 | 0.1 to 0.5 | < 0.1 | < 0.1 | – | – | – | – |
| [2H]c1cc([C@]2(C#N)O[C@@H]3CO[P@](=O)(OCC)O[C@H]3[C@H]2O)n2ncnc(N)c12 [Compound 232] | – | – | – | – | > 0.5 | > 0.5 | > 0.5 | > 0.5 |
| N#C[C@@]1(c2ccc3c(N)ncnn23)O[C@@H]2CO[P@](=O)(Oc3ccccc3)O[C@H]2[C@H]1O [Compound 221] | > 0.5 | > 0.5 | – | – | – | – | > 0.5 | > 0.5 |
| CC(C)OC(=O)OCO[P@@]1(=O)OC[C@H]2O[C@@](C#N)(c3ccc4c(N)ncnn34)[C@H](O)[C@@H]2O1 [Compound 145] | 0.1 to 0.5 | 0.1 to 0.5 | < 0.1 | 0.1 to 0.5 | – | – | – | – |
| CCN(CC)Cc1cc(Nc2ccnc3cc(Cl)ccc23)ccc1O[P@](=O)(N[C@@H](C)C(=O)OC)OC[C@H]1O[C@@](C#N)(c2ccc3c(N)ncnn23)[C@H](O)[C@@H]1O [Compound 087] | – | – | – | – | > 0.5 | > 0.5 | > 0.5 | > 0.5 |
| CC(C)OC(=O)CO[P@]1(=S)OC[C@H]2O[C@@](C#N)(c3ccc4c(N)ncnn34)[C@H](O)[C@@H]2O1 [Compound 149] | > 0.5 | > 0.5 | – | – | – | – | > 0.5 | > 0.5 |
| N#C[C@@]1(c2ccc3c(N)ncnn23)O[C@@H]2COP(=O)(O)O[C@H]2[C@H]1OC(=O)CCCc1ccccc1 [Compound 260] | > 0.5 | > 0.5 | 0.1 to 0.5 | 0.1 to 0.5 | – | – | – | – |
| CCC(CC)COC(=O)[C@H](C)N[P@@](=O)(OC[C@H]1O[C@@](C#N)(c2ccc3c(N)ncnn23)[C@H](O)[C@@H]1O)Oc1ccc(C[C@H](NC(=O)OCc2ccccc2)C(=O)OC2CCCC2)cc1 [Compound 218] | – | – | – | – | > 0.5 | > 0.5 | > 0.5 | > 0.5 |
| N#C[C@@]1(c2ccc3c(N)ncnn23)O[C@@H]2CO[P@@](=O)(OCOC(=O)CCCc3ccccc3)O[C@H]2[C@H]1O [Compound 264] | > 0.5 | > 0.5 | < 0.1 | 0.1 to 0.5 | – | – | – | – |
| CCCN(CCC)S(=O)(=O)c1ccc(C(=O)O[C@@H]2[C@@H]3OP(=O)(O)OC[C@H]3O[C@@]2(C#N)c2ccc3c(N)ncnn23)cc1 [Compound 158] | > 0.5 | > 0.5 | > 0.5 | > 0.5 | – | – | – | – |
| CCC(CC)COC(=O)[C@H](C)NP(=O)(OC[C@H]1O[C@@](C#N)(c2ccc3c(N)ncnn23)[C@H](O)[C@@H]1O)Oc1cc(N)ccc1C(=O)OC (some centres unmarked) [Compound 128] | – | – | – | – | > 0.5 | > 0.5 | > 0.5 | > 0.5 |
| CCC(CC)COC(=O)[C@H](C)NP(=O)(OC[C@H]1O[C@@](C#N)(c2ccc3c(N)ncnn23)[C@H](O)[C@@H]1O)Oc1ccc(Nc2ccnc3cc(Cl)ccc23)cc1CN(CC)CC (some centres unmarked) [Compound 016] | – | – | – | – | > 0.5 | > 0.5 | > 0.5 | > 0.5 |
| CC(C)(C)C(=O)OCO[P@](=O)(OC[C@H]1O[C@@](C#N)(c2ccc3c(N)ncnn23)[C@H](O)[C@@H]1O)Oc1ccccc1 [Compound 215] | > 0.5 | > 0.5 | – | – | – | – | > 0.5 | > 0.5 |
| CC(C)(C)C(=O)OCO[P@]1(=O)OCC2O[C@@](C#N)(c3ccc4c(N)ncnn34)[C@H](O)[C@@H]2O1 (some centres unmarked) [Compound 198] | > 0.5 | > 0.5 | 0.1 to 0.5 | > 0.5 | – | – | – | – |
| N#C[C@@]1(c2ccc3c(N)ncnn23)O[C@@H]2CO[P@@](=O)(OCOC(=O)Oc3ccccc3)O[C@H]2[C@H]1O [Compound 229] | > 0.5 | > 0.5 | > 0.5 | > 0.5 | – | – | – | – |
| CC(C)OC(=O)C(C)(C)N[P@](=O)(OCOC(=O)CCCc1ccccc1)OC[C@H]1O[C@@](C#N)(c2ccc3c(N)ncnn23)[C@H](O)[C@@H]1O [Compound 270] | > 0.5 | > 0.5 | > 0.5 | > 0.5 | – | – | – | – |
